A word on the stoichiometry N: it is a count of units in the complex or per binding partner.

For assay [1], the target named is T1, NDUTT3 (Tetrahymena thermophila, UniProt I7LUQ4).
T1 construct: gene TTHERM_00268000; native matrix-arm subunit of complex I within supercomplex, digitonin
T1 sequence (I7LUQ4 1-311): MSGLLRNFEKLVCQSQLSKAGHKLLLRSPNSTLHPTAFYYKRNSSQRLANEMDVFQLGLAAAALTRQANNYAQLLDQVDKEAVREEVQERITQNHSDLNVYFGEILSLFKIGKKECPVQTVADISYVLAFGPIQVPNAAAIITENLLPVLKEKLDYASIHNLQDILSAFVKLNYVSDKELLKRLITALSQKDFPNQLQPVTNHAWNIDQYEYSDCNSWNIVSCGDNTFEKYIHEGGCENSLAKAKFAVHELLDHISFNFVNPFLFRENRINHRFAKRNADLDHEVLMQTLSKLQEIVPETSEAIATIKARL
The assay is described as follows: cryo-EM structure. The assay is classed as binding. Conditions: co-purified native ligand.

Assay [2] addresses T2, COB (CIII2) (Tetrahymena thermophila, UniProt Q950Z1).
T2 construct: native; mitochondria-encoded subunit in complex III dimer within supercomplex, digitonin
T2 sequence (Q950Z1 1-426): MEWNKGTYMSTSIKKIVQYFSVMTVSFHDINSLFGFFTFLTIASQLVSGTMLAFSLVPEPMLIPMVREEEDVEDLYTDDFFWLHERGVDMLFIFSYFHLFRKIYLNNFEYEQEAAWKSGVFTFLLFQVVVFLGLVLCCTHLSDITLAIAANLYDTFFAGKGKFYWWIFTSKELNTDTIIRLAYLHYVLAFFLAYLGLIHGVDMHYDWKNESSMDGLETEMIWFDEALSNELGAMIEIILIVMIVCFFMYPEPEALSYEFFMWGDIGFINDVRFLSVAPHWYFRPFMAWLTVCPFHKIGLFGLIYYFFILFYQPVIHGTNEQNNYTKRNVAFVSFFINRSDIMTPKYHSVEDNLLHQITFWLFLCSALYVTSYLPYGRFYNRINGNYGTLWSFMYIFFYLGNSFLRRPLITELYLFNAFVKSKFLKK
Put plainly: cryo-EM structure. Type of assay: binding. Conditions: co-purified; Qi site near haem bH (or semiquinone); second site between the two haem bL.

The target in assay [3] is T3, SDHA (CII) (Tetrahymena thermophila, UniProt Q23DI3).
T3 construct: gene TTHERM_00047080; native complex II in I-II-III2-IV2 supercomplex from mitochondria, digitonin; with Succinate dehydrogenase [ubiquinone] iron-sulfur subunit, mitochondrial; Succinate dehydrogenase membrane anchor subunit SDHC; Succinate dehydrogenase membrane anchor subunit SDHD (mitochondria-encoded)
T3 sequence (Q23DI3 1-636): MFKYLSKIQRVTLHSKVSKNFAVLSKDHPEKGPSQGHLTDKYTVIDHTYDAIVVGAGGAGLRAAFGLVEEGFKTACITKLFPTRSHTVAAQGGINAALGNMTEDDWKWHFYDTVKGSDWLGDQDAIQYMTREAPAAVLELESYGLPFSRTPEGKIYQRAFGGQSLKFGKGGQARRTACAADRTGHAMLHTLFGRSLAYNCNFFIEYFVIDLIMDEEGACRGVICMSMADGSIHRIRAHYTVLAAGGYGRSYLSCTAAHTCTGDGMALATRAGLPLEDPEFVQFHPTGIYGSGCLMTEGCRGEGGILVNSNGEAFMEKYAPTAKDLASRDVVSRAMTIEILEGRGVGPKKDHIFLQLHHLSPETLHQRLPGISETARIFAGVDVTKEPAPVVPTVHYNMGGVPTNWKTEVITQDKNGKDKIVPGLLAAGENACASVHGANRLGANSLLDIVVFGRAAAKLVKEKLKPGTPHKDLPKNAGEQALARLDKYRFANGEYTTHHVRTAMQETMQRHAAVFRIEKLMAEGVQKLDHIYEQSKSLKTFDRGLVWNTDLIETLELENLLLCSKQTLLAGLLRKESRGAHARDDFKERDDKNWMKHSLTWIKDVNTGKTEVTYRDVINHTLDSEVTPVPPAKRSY
Put plainly: cryo-EM structure. The assay is classed as binding. Conditions: covalent.

For assay [4], the target named is complex IV monomer (cytochrome c oxidase) of Tetrahymena thermophila (Tetrahymena thermophila) (UniProt Q950Y7). The assay is described as follows: cryo-EM structure; single-particle cryo-EM of the native supercomplex co-purified from T. thermophila mitochondria; buffer D (25 mM HEPES-KOH pH 7.5, 25 mM KCl, 5 mM MgCl2, 0.1% w/v digitonin); 2.9 Å overall, masked refinements 2.6-3.0 Å.

Assay [5] addresses complex III monomer (cytochrome bc1) of Tetrahymena thermophila (Tetrahymena thermophila). The description is as above.
The target of assay [6] is T4, NDUFA9 (Tetrahymena thermophila, UniProt I7MLH2).
T4 construct: gene TTHERM_00557760; native subunit of complex I within supercomplex, digitonin
T4 sequence (I7MLH2 27-362): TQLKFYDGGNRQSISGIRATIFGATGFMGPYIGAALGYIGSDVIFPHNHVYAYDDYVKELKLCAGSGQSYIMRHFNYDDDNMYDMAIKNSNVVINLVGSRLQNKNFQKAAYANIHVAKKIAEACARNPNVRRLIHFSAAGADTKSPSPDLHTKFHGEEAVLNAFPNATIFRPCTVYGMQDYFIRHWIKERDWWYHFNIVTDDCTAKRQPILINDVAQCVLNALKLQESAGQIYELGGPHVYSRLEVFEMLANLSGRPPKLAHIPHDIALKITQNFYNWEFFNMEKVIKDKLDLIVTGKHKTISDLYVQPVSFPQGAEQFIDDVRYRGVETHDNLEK
Put plainly: cryo-EM structure. The assay is classed as binding. Conditions: co-purified; close to the CI Q-tunnel.

Turning to `Nc1ncnc2c1ncn2[C@@H]1O[C@H](COP(=O)(O)OP(=O)(O)O)[C@@H](O)[C@H]1O` [ADP], the cryo-EM structure result in assay [1] was “subunits NDUTT1 with UDP and NDUTT3 with ADP”. As to `COC1=C(OC)C(=O)C(C/C=C(\C)CC/C=C(\C)CC/C=C(\C)CC/C=C(\C)CC/C=C(\C)CC/C=C(\C)CC/C=C(\C)CCC=C(C)C)=C(C)C1=O` [UQ, ubiquinone], the cryo-EM structure entry in assay [2] was “density for a bound (semi)-UQ was observed in the Qi site”.

Take `Cc1cc2nc3c(=O)[nH]c(=O)nc-3n(C[C@H](O)[C@H](O)[C@H](O)COP(=O)(O)OP(=O)(O)OC[C@H]3O[C@@H](n4cnc5c(N)ncnc54)[C@H](O)[C@@H]3O)c2cc1C` [flavin adenine dinucleotide]: the cryo-EM structure result in assay [3] was “SDHA and SDHB forms a conserved head region, containing both the covalently bound FAD”. Compound “complex IV monomer (cytochrome c oxidase) of Tetrahymena thermophila (from UniProt Q950Y7 1-453; Q950Y6 1-594)” came in with a stoichiometry N in assay [4] of 2.

In turn, “complex III monomer (cytochrome bc1) of Tetrahymena thermophila” displayed a stoichiometry N in assay [5] of 2. Turning to `NC(=O)C1=CN([C@@H]2O[C@H](COP(=O)(O)OP(=O)(O)OC[C@H]3O[C@@H](n4cnc5c(N)ncnc54)[C@H](OP(=O)(O)O)[C@@H]3O)[C@@H](O)[C@H]2O)C=CC1` [NADPH], the cryo-EM structure entry in assay [6] is “NDUFA9 contains a bound NADPH molecule close to the CI Q-tunnel”.

Source of the values: article PMC10060162, “Structural basis of mitochondrial membrane bending by the I–II–III2–IV2 supercomplex” (Nature, 2023).
